{"source": "paper PMC8395935", "about": "(Medical Sciences, 2021)", "key": {"CD-1 mice [1]": {"test_system": "CD-1 mice", "experiment": "Intravenous injection study with multiple-time regression analysis after an acute rapamycin i.v. injection", "conditions": "male CD-1 mice", "procedure": "(§1) The blood glucose was measured via the tail vein (AlphaTrak2, Abbott Laboratories, Chicago, IL, USA). […] The radioactivity circulated for times between 1–10 min, after which the carotid artery was cut to collect blood. The mice were immediately decapitated and the whole brain was removed and weighed. The blood was centrifuged at 5400 g for 10 min and the amount of radioactivity in the serum (50 µL) and the whole brain was counted in a gamma counter (Wizard2, PerkinElmer, Waltham, MA, USA). Two separate cohorts of mice were combined in the final analyses. […] Naïve male mice were anesthetized as described.\n(§2) The exposure time is calculated by the formula:(1) Exposure time=∫0tCptdt/Cpt where Cp(t) is the level of radioactivity (cpm) in the serum at time (t). The exposure time corrects for the clearance of peptide from the blood. […] The slope of the linearity measures the Ki and is reported with its standard error term. The y-intercept of the linearity measures the Vi, the initial volume of distribution in brain at t = 0 [11]."}, "aorta": {"test_system": "aorta", "experiment": "Western immunoblotting of insulin signaling proteins in the aorta", "format": "in vivo, mice", "conditions": "2 weeks rapamycin 8 mg/kg", "procedure": "(§3) Following a 6 h fast, blood glucose was taken. The mice were anesthetized as described above, the thoracic cavity was opened, and blood was collected from the descending aorta. […] The brain vasculature was washed out by perfusing 20 mL of ice cold LR into the left ventricle of the heart. The brain was removed and split into the right and left hemispheres. The aorta was also removed. The blood was centrifuged at 5400 g for 10 min and the serum was collected. All the tissues were snap frozen in liquid nitrogen and stored at −80 °C until further processing.\nThe right hemisphere was crushed with a mortar and pestle in liquid nitrogen and approximately 100 mg of tissue was homogenized in radioimmunoprecipitation assay (RIPA) buffer (150 mM NaCl, 0.5% deoxycholic acid, 0.1% sodium dodecyl sulfate (SDS), 20 mM Tris HCl, and 2 mM ethylenediaminetetraacetic acid (EDTA)) plus freshly added 1/100 dilutions of a protease inhibitor cocktail (Sigma-Aldrich), 1mM sodium orthovanadate, and a phosphatase inhibitor (1 tablet PhosSTOP per 10 mL buffer) (Roche, Basel, Switzerland). The aortas were homogenized in the same lysis buffer. The samples were sonicated at 40% amplitude prior to centrifugation at 12,000× g for 10 min at 4 °C. The supernatants were collected and frozen at −80 °C. The protein was measured using the Pierce BCA Protein Assay Kit (Thermo Fisher Scientific, Rockford, IL, USA). […]"}, "[2]": {"conditions": "following an 8 mg/kg body weight IP injection; cited from earlier work"}, "CD-1 mice [3]": {"test_system": "CD-1 mice", "experiment": "Intravenous injection study with multiple-time regression analysis after chronic rapamycin treatment", "conditions": "for Vi (125I-insulin vascular binding) / Ki (125I-insulin BBB transport): rapamycin 8 mg/kg IP daily for 2 weeks, i.v. tracer", "procedure": "(§4) The vehicle was prepared by creating a 1.2% DMSO solution in 5% Tween 80, 5% PEG 400.\nas §1, §2"}, "CD-1 mice [4]": {"test_system": "CD-1 mice", "experiment": "Body weight and fasting blood glucose after chronic rapamycin treatment", "format": "in vivo", "procedure": "as §4, §1"}, "CD-1 mice [5]": {"test_system": "CD-1 mice", "experiment": "Measurement of hormone levels in serum and brain lysate (Bio-Plex Pro Mouse Diabetes Assay)", "format": "in vivo", "conditions": "2 weeks rapamycin 8 mg/kg", "procedure": "as §3\nThe right hemisphere was crushed with a mortar and pestle in liquid nitrogen and approximately 100 mg of tissue was homogenized in radioimmunoprecipitation assay (RIPA) buffer (150 mM NaCl, 0.5% deoxycholic acid, 0.1% sodium dodecyl sulfate (SDS), 20 mM Tris HCl, and 2 mM ethylenediaminetetraacetic acid (EDTA)) plus freshly added 1/100 dilutions of a protease inhibitor cocktail (Sigma-Aldrich), 1mM sodium orthovanadate, and a phosphatase inhibitor (1 tablet PhosSTOP per 10 mL buffer) (Roche, Basel, Switzerland). The aortas were homogenized in the same lysis buffer. The samples were sonicated at 40% amplitude prior to centrifugation at 12,000× g for 10 min at 4 °C. The supernatants were collected and frozen at −80 °C. The protein was measured using the Pierce BCA Protein Assay Kit (Thermo Fisher Scientific, Rockford, IL, USA).\nA panel of 8 metabolic hormones was measured in the brain lysate and serum using a Bio-Plex Pro Mouse Diabetes Assay (Bio-Rad Laboratories, Hercules, CA, USA): ghrelin, glucose-dependent insulinotropic peptide (GIP), glucagon-like peptide-1 (GLP-1), glucagon, insulin, leptin, plasminogen activator inhibitor-1 (PAI-1), and resistin. The serum was diluted 1:4 with the kit diluent. Twenty µg/µL protein lysate samples were measured from the right hemisphere. The samples were measured according to the manufacturer and read on a Bio-Plex 200 (Bio-Rad Laboratories)."}, "CD-1 mice [6]": {"test_system": "CD-1 mice", "experiment": "Transcardiac brain perfusion (absence of serum factors) after chronic rapamycin treatment", "conditions": "rapamycin 8 mg/kg IP daily for 2 weeks", "procedure": "as §4\nPerfusate was collected throughout the study to determine the average cpm/µL of perfusate. After perfusion, the whole brain was weighed and the amount of radioactivity was counted in a gamma counter (Wizard2, PerkinElmer). The brain/perfusate ratios were calculated by dividing the cpm in a gram of brain by the cpm in a µL of perfusate to yield the units of µL/g.\nas §2"}, "CD-1 mice [7]": {"test_system": "CD-1 mice", "experiment": "Serum triglyceride levels after chronic rapamycin treatment", "format": "in vivo", "conditions": "two-week rapamycin treatment 8 mg/kg IP daily; males and females; n = 4/group"}, "mice [8]": {"test_system": "mice", "conditions": "cited from earlier work", "description": "(§5) Triglycerides were one mechanism we hypothesized rapamycin could impact insulin BBB transport. […] A study in humans reported an increase in the serum triglyceride levels by approximately 47% follow ..."}, "humans": {"test_system": "humans", "conditions": "10 mg/day dose for 42 days as tolerated, patients with initial hyperlipidemic response; cited from earlier work", "description": "as §5"}, "CD-1 mice [9]": {"test_system": "CD-1 mice", "experiment": "Measurement of serum cytokines (Bio-Plex Pro Mouse Cytokine Assay)", "format": "in vivo", "conditions": "2 weeks rapamycin 8 mg/kg", "procedure": "as §3\nA panel of 23 cytokines was measured in the brain protein lysate and serum using a mouse Bio-Plex Pro Mouse Cytokine Assay (Bio-Rad Laboratories): interleukin (IL)-1α; IL-1β; IL-2; IL-3; IL-4; IL-5; IL-6; IL-9; IL-10; IL-12(p40); IL-12(p70); IL-13; IL-17; eotaxin (CCL11); granulocyte colony-stimulating factor (G-CSF); granulocyte-macrophage colony-stimulating factor (GM-CSF); interferon (IFN)-γ; keratinocyte chemoattractant (KC) (CXCL1); monocyte chemoattractant protein (MCP)-1 (CCL2); macrophage inflammatory protein (MIP)-1α (CCL3); MIP-1β (CCL4); and regulated on activation, normal T cell expressed and secreted (RANTES; CCL5) and tumor necrosis factor (TNF)-α). The serum samples were diluted 1:4 with the kit sample diluent. The samples were measured according to the manufacturer and read on a Bio-Plex 200 (Bio-Rad Laboratories)."}, "mice [10]": {"test_system": "mice", "conditions": "cited from earlier work", "description": "We observed a decrease in body weight only in males.", "remark": "listed apart in the source"}, "[11]": {"conditions": "female CD-1 mice, transcardiac perfusion"}}}
{"smiles": "CO[C@H]1C[C@@H]2CC[C@@H](C)[C@@](O)(O2)C(=O)C(=O)N2CCCC[C@H]2C(=O)O[C@H]([C@H](C)C[C@@H]2CC[C@@H](O)[C@H](OC)C2)CC(=O)[C@H](C)/C=C(\\C)[C@@H](O)[C@@H](OC)C(=O)[C@H](C)C[C@H](C)/C=C/C=C/C=C/1C", "note": "[Rapamycin]", "values": [{"measurement": "Ki (unidirectional influx of 125I-insulin from blood to brain)", "setting": "CD-1 mice [1]; rapamycin 400 ng i.v. 10 min before 125I-insulin i.v., brain/serum ratio corrected with 99mTc-albumin, 1-10 min, slope ± standard error, gamma counter", "result": "0.541 ± 0.13", "unit": "µL/g/min"}, {"measurement": "Vi (125I-insulin vascular binding)", "setting": "CD-1 mice [1]; rapamycin 400 ng i.v. 10 min before 125I-insulin i.v., y-intercept of regression, p = 0.02 vs vehicle", "result": "10.1 ± 1.3", "unit": "µL/g"}, {"measurement": "rate of insulin BBB transport (Ki)", "setting": "CD-1 mice [1]; rapamycin 400 ng i.v. 10 min before tracer, p = 0.63 vs vehicle", "result": "0.54 ± 0.1", "unit": "µL/g/min"}, {"measurement": "MAPK protein expression relative to β-actin", "setting": "aorta; males and females, treatment p = 0.006, n = 3-4/group", "result": "significant increase"}, {"measurement": "phosphorylated Akt (pAkt Ser473) relative to total Akt", "setting": "aorta; only in males, interaction p = 0.0918, n = 3-4/group", "result": "trend in decreased levels"}, {"measurement": "blood rapamycin levels", "setting": "[2]", "result": 100, "unit": "ng/mL"}, {"measurement": "Vi (125I-insulin vascular binding)", "setting": "CD-1 mice [3]; female CD-1 mice", "result": "9.9 ± 2.9", "unit": "µL/g"}, {"measurement": "Ki (125I-insulin BBB transport)", "setting": "CD-1 mice [3]; female CD-1 mice, linear regression not significant (ns)", "result": "0.73 ± 0.34", "unit": "µL/g/min"}, {"measurement": "Vi (125I-insulin vascular binding)", "setting": "CD-1 mice [3]; male CD-1 mice", "result": "4.0 ± 1.0", "unit": "µL/g"}, {"measurement": "Ki (125I-insulin BBB transport)", "setting": "CD-1 mice [3]; male CD-1 mice, slope ± standard error, p = 0.055 vs vehicle", "result": "1.32 ± 0.19", "unit": "µL/g/min"}, {"measurement": "vascular marker 99mTc-albumin (BBB integrity)", "setting": "CD-1 mice [3]; two-week rapamycin treatment, data not shown", "result": "no effect"}, {"measurement": "body weight gain", "setting": "CD-1 mice [4]; 2 weeks of rapamycin 8 mg/kg IP daily, males n = 24-34, females n = 18-19", "result": "impacted body weight gain in males only"}, {"measurement": "fasting blood glucose levels", "setting": "CD-1 mice [4]; females, 2 weeks rapamycin 8 mg/kg IP daily, 6 h fast, p = 0.19", "result": "did not have the same increase"}, {"measurement": "mean fasting blood glucose levels", "setting": "CD-1 mice [4]; males, 2 weeks rapamycin 8 mg/kg IP daily, 6 h fast, p < 0.001 vs vehicle (157 mg/dL), n = 12-16/group", "result": 226, "unit": "mg/dL"}, {"measurement": "serum GLP-1 levels", "setting": "CD-1 mice [5]; 6 h fast, treatment p = 0.015, n = 4/group", "result": "significantly increased"}, {"measurement": "serum resistin levels", "setting": "CD-1 mice [5]; males and females, 6 h fast, p < 0.0001, n = 4/group", "result": "significantly decreased"}, {"measurement": "ghrelin, GIP, glucagon, or leptin levels", "setting": "CD-1 mice [5]; serum, 6 h fast, n = 4/group", "result": "no effect"}, {"measurement": "brain insulin levels", "setting": "CD-1 mice [5]; whole brain lysate, treatment p = 0.034, post hoc p = 0.014, n = 3-4/group", "result": "significant differences in females only"}, {"measurement": "Ki (125I-insulin BBB transport, absence of serum factors)", "setting": "CD-1 mice [6]; [11]", "result": "1.89 ± 0.63", "unit": "µL/g/min"}, {"measurement": "Vi (125I-insulin vascular binding, absence of serum factors)", "setting": "CD-1 mice [6]; [11]", "result": "8.3 ± 2.1", "unit": "µL/g"}, {"measurement": "Vi (125I-insulin vascular binding, absence of serum factors)", "setting": "CD-1 mice [6]; male CD-1 mice, transcardiac perfusion", "result": "8.0 ± 1.7", "unit": "µL/g"}, {"measurement": "Ki (125I-insulin BBB transport, absence of serum factors)", "setting": "CD-1 mice [6]; male CD-1 mice, transcardiac perfusion 2 mL/min, 1-5 min, brain/perfusate ratio vs clock time", "result": "1.35 ± 0.53", "unit": "µL/g/min"}, {"measurement": "serum triglyceride levels", "setting": "CD-1 mice [7]", "result": "did not elicit a significant change"}, {"measurement": "increase in serum triglyceride levels", "setting": "mice [8]; growth hormone receptor knockout male mice, 4 mg/kg every other day for 20 weeks", "result": "approximately 12%"}, {"measurement": "serum triglyceride levels", "setting": "mice [8]; mice fed rapamycin orally", "result": "no differences were observed"}, {"measurement": "increase in serum triglyceride levels", "setting": "humans", "result": "approximately 47%"}, {"measurement": "serum IL-2 levels", "setting": "CD-1 mice [9]; 6 h fast, p = 0.009, n = 3/group", "result": "increased"}, {"measurement": "serum IL-17 levels", "setting": "CD-1 mice [9]; 6 h fast, p = 0.023, n = 3/group", "result": "increased"}, {"measurement": "serum IL-3 levels", "setting": "CD-1 mice [9]; 6 h fast, treatment p = 0.004, post hoc in males p = 0.007, n = 3/group", "result": "increased significantly"}, {"measurement": "serum TNF-α, RANTES, and GM-CSF levels", "setting": "CD-1 mice [9]; not statistically significant (0.05 < p < 0.07)", "result": "trend towards an increase"}, {"measurement": "glucose tolerance", "setting": "mice [10]; 2 weeks of daily injections of a fourfold lower concentration than the current study", "result": "impair glucose tolerance"}, {"measurement": "serum glucose levels", "setting": "mice [10]; five weeks of daily rapamycin treatment, mice fasted overnight", "result": "increase"}]}
